System: MV-4-11 cells
Assay: Gene expression microarray analysis (Affymetrix PrimeView) and GSEA
Assay type: cell-based, human
Set-up: RFU PODN (11730768_x_at) / Fold change /veh PODN (11730768_x_at) / RFU LINC00158 (11744669_a_at) / Fold change /veh LINC00158 (11744669_a_at) / RFU DUSP10 (11751237_a_at) / Fold change /veh DUSP10 (11751237_a_at) / RFU ID3 (11757404_x_at) / Fold change /veh ID3 (11757404_x_at) / RFU PLEKHG5 (11737974_s_at) / Fold change /veh PLEKHG5 (11737974_s_at) / RFU LRRC4B (11730491_at) / Fold change /veh LRRC4B (11730491_at) / RFU GIMAP4 (11747438_a_at) / Fold change /veh GIMAP4 (11747438_a_at) / RFU KRT8 (11758183_x_at) / Fold change /veh KRT8 (11758183_x_at) / RFU CNN1 (11734310_a_at) / Fold change /veh CNN1 (11734310_a_at) / RFU VPS37D (11726825_at) / Fold change /veh VPS37D (11726825_at) / RFU C10orf10 (11716522_x_at) / Fold change /veh C10orf10 (11716522_x_at) / RFU KIR2DL2 /// KIR2DL4 /// KIR2DL5A /// KIR2DL5B /// KIR2DS1 /// KIR2DS2 /// KIR2DS3 /// KIR2DS4 /// KIR3DL3 /// KIR3DL3 /// KIR3DS1 (11738374_at) / Fold change /veh KIR2DL2 /// KIR2DL4 /// KIR2DL5A /// KIR2DL5B /// KIR2DS1 /// KIR2DS2 /// KIR2DS3 /// KIR2DS4 /// KIR3DL3 /// KIR3DL3 /// KIR3DS1 (11738374_at) / RFU C1QL1 (11718748_at) / Fold change /veh C1QL1 (11718748_at) / RFU TMPRSS4 (11747572_a_at) / Fold change /veh TMPRSS4 (11747572_a_at) / RFU HAMP (11756126_x_at) / Fold change /veh HAMP (11756126_x_at) / RFU RNFT2 (11725882_a_at) / Fold change /veh RNFT2 (11725882_a_at) / RFU NR4A2 (11747474_a_at) / Fold change /veh NR4A2 (11747474_a_at) / RFU ABCC12 (11746883_a_at) / Fold change /veh ABCC12 (11746883_a_at) / RFU TMEM136 (11760407_x_at) / Fold change /veh TMEM136 (11760407_x_at) / RFU CLDN22 /// WWC2 (11732394_at) / Fold change /veh CLDN22 /// WWC2 (11732394_at) / RFU HLA-DPB1 (11760878_x_at) / Fold change /veh HLA-DPB1 (11760878_x_at) / RFU SPINT1 (11716480_a_at) / Fold change /veh SPINT1 (11716480_a_at) / RFU GAP43 (11754022_s_at) / Fold change /veh GAP43 (11754022_s_at) / RFU A4GNT (11735810_at) / Fold change /veh A4GNT (11735810_at) / RFU PRB3 (11715151_x_at) / Fold change /veh PRB3 (11715151_x_at) / RFU TUBB4B (11761932_at) / Fold change /veh TUBB4B (11761932_at) / RFU CAPN14 (11732068_a_at) / Fold change /veh CAPN14 (11732068_a_at) / RFU TMCC2 (11721928_a_at) / Fold change /veh TMCC2 (11721928_a_at) / RFU IRGQ (11745062_a_at) / Fold change /veh IRGQ (11745062_a_at) / RFU FAM174B (11720279_a_at) / Fold change /veh FAM174B (11720279_a_at) / RFU TMPRSS4 (11748680_a_at) / Fold change /veh TMPRSS4 (11748680_a_at) / RFU FAM212B (11763350_a_at) / Fold change /veh FAM212B (11763350_a_at) / RFU PLEKHG5 (11743358_a_at) / Fold change /veh PLEKHG5 (11743358_a_at) / RFU ZSCAN30 (11745921_a_at) / Fold change /veh ZSCAN30 (11745921_a_at) / RFU CMKLR1 (11741424_a_at) / Fold change /veh CMKLR1 (11741424_a_at) / RFU LOC101060620 /// MAPK8IP1 (11723275_at) / Fold change /veh LOC101060620 /// MAPK8IP1 (11723275_at) / RFU SPTSSB (11747773_x_at) / Fold change /veh SPTSSB (11747773_x_at) / RFU PRSS12 (11739890_at) / Fold change /veh PRSS12 (11739890_at) / RFU BIN1 (11741810_x_at) / Fold change /veh BIN1 (11741810_x_at) / RFU WNT11 (11732464_a_at) / Fold change /veh WNT11 (11732464_a_at) / RFU C10orf10 (11716521_a_at) / Fold change /veh C10orf10 (11716521_a_at) / RFU C5orf56 (11738089_at) / Fold change /veh C5orf56 (11738089_at) / RFU CYB561 (11721691_x_at) / Fold change /veh CYB561 (11721691_x_at) / RFU ANKRD19P (11752326_a_at) / Fold change /veh ANKRD19P (11752326_a_at) / RFU OR2T12 /// OR2T33 /// OR2T8 (11738714_s_at) / Fold change /veh OR2T12 /// OR2T33 /// OR2T8 (11738714_s_at) / RFU VCAN (11748164_a_at) / Fold change /veh VCAN (11748164_a_at) / RFU JSRP1 (11732532_at) / Fold change /veh JSRP1 (11732532_at) / RFU KRTAP10-11 (11738290_x_at) / Fold change /veh KRTAP10-11 (11738290_x_at) / RFU MYO3A (11730013_a_at) / Fold change /veh MYO3A (11730013_a_at) / RFU EBF3 (11725865_a_at) / Fold change /veh EBF3 (11725865_a_at) / RFU CAMK2N1 (11719241_x_at) / Fold change /veh CAMK2N1 (11719241_x_at) / RFU C5orf56 (11738088_a_at) / Fold change /veh C5orf56 (11738088_a_at) / RFU OLFML3 (11715873_a_at) / Fold change /veh OLFML3 (11715873_a_at) / RFU LOC100653217 /// NTM (11731650_a_at) / Fold change /veh LOC100653217 /// NTM (11731650_a_at) / RFU MAPK11 (11762145_a_at) / Fold change /veh MAPK11 (11762145_a_at) / RFU FIZ1 (11724087_x_at) / Fold change /veh FIZ1 (11724087_x_at) / RFU OASL (11726364_x_at) / Fold change /veh OASL (11726364_x_at) / RFU SOX15 (11748057_x_at) / Fold change /veh SOX15 (11748057_x_at) / RFU CD79A (11719716_a_at) / Fold change /veh CD79A (11719716_a_at) / RFU HIST1H1D (11736915_at) / Fold change /veh HIST1H1D (11736915_at) / RFU CASKIN2 (11723855_a_at) / Fold change /veh CASKIN2 (11723855_a_at) / RFU LOC730098 (11760151_x_at) / Fold change /veh LOC730098 (11760151_x_at) / RFU OR4N2 (11742367_at) / Fold change /veh OR4N2 (11742367_at) / RFU PRRT2 (11749266_a_at) / Fold change /veh PRRT2 (11749266_a_at) / RFU SNX32 (11753110_a_at) / Fold change /veh SNX32 (11753110_a_at) / RFU CDHR5 (11726645_a_at) / Fold change /veh CDHR5 (11726645_a_at) / RFU RCAN1 (11760418_a_at) / Fold change /veh RCAN1 (11760418_a_at) / RFU FAM167A (11723789_a_at) / Fold change /veh FAM167A (11723789_a_at) / RFU FAM26E (11764081_at) / Fold change /veh FAM26E (11764081_at) / RFU ISYNA1 (11749810_s_at) / Fold change /veh ISYNA1 (11749810_s_at) / RFU ACY1 (11761880_at) / Fold change /veh ACY1 (11761880_at) / RFU 11764098_at / Fold change /veh 11764098_at / RFU SAMD14 (11745864_x_at) / Fold change /veh SAMD14 (11745864_x_at) / RFU NPB (11741838_a_at) / Fold change /veh NPB (11741838_a_at) / RFU TMPRSS6 (11731388_a_at) / Fold change /veh TMPRSS6 (11731388_a_at) / RFU KRTAP10-2 (11738614_at) / Fold change /veh KRTAP10-2 (11738614_at) / RFU ARHGAP8 /// PRR5-ARHGAP8 (11727945_x_at) / Fold change /veh ARHGAP8 /// PRR5-ARHGAP8 (11727945_x_at) / RFU KRTAP5-7 /// NADSYN1 (11734609_at) / Fold change /veh KRTAP5-7 /// NADSYN1 (11734609_at) / RFU RASL12 (11751679_a_at) / Fold change /veh RASL12 (11751679_a_at) / RFU CDKN2B (11736163_a_at) / Fold change /veh CDKN2B (11736163_a_at) / RFU PRF1 (11729649_at) / Fold change /veh PRF1 (11729649_at) / RFU, ZNF638 /// ZNF638-IT1 / Fold change vs veh, ZNF638 /// ZNF638-IT1 / RFU, PANK3 / Fold change vs veh, PANK3 / RFU, SH3YL1 / Fold change vs veh, SH3YL1 / RFU, ZEB2 / Fold change vs veh, ZEB2 / RFU, NRIP1 / Fold change vs veh, NRIP1 / RFU, PTTG1IP / Fold change vs veh, PTTG1IP / RFU, CAPN2 / Fold change vs veh, CAPN2 / RFU, MED14 / Fold change vs veh, MED14 / RFU, SNORA58 / Fold change vs veh, SNORA58 / RFU, C1orf63 / Fold change vs veh, C1orf63 / RFU, LRRFIP1 / Fold change vs veh, LRRFIP1 / RFU, NDUFAF7 / Fold change vs veh, NDUFAF7 / RFU, SLC12A2 / Fold change vs veh, SLC12A2 / RFU, IBTK / Fold change vs veh, IBTK / RFU, ESF1 / Fold change vs veh, ESF1 / Fold change vs veh, TMEM50B / RFU, TAOK1 / Fold change vs veh, TAOK1 / RFU, ACBD3 / Fold change vs veh, ACBD3 / RFU, TMA16 / Fold change vs veh, TMA16 / RFU, RWDD3 / Fold change vs veh, RWDD3 / RFU, BCAT1 / Fold change vs veh, BCAT1 / RFU, EDEM3 / Fold change vs veh, EDEM3 / RFU, TMEM33 / Fold change vs veh, TMEM33 / RFU, WDR75 / Fold change vs veh, WDR75 / RFU, AHCTF1 / Fold change vs veh, AHCTF1 / RFU, TFRC / Fold change vs veh, TFRC / RFU, ZDHHC17 / Fold change vs veh, ZDHHC17 / RFU, NOM1 / Fold change vs veh, NOM1 / RFU, ARL8B / Fold change vs veh, ARL8B / RFU, ZBTB11 / Fold change vs veh, ZBTB11 / RFU, TAMM41 / Fold change vs veh, TAMM41 / RFU, KIAA1704 /// LOC100996395 / Fold change vs veh, KIAA1704 /// LOC100996395 / RFU, ING1 / Fold change vs veh, ING1 / RFU, TRMT61B / Fold change vs veh, TRMT61B / RFU, FUBP3 / Fold change vs veh, FUBP3 / RFU, TP53 / Fold change vs veh, TP53 / RFU, TNKS2 / Fold change vs veh, TNKS2 / RFU, ZFP14 / Fold change vs veh, ZFP14 / RFU, ACTR2 / Fold change vs veh, ACTR2 / RFU, PPP3R1 / Fold change vs veh, PPP3R1 / RFU, PIK3R1 / Fold change vs veh, PIK3R1 / RFU, HNRNPA1 / Fold change vs veh, HNRNPA1 / RFU, RNF170 / Fold change vs veh, RNF170 / RFU, ZNF28 / Fold change vs veh, ZNF28 / RFU, RNGTT / Fold change vs veh, RNGTT / RFU, OGT / Fold change vs veh, OGT / RFU, BRD1 / Fold change vs veh, BRD1 / RFU, MARS / Fold change vs veh, MARS / RFU, ZNF655 / Fold change vs veh, ZNF655 / RFU, FAHD1 / Fold change vs veh, FAHD1 / RFU, BDP1 / Fold change vs veh, BDP1 / RFU, LRRCC1 / Fold change vs veh, LRRCC1 / RFU, ARID1A / Fold change vs veh, ARID1A / RFU, ZNF146 / Fold change vs veh, ZNF146 / RFU, ZNF330 / Fold change vs veh, ZNF330 / RFU, GPN3 / Fold change vs veh, GPN3 / RFU, C9orf123 / Fold change vs veh, C9orf123 / RFU, N4BP2L2 / Fold change vs veh, N4BP2L2 / RFU, ARFIP1 / Fold change vs veh, ARFIP1 / RFU, FAM179B / Fold change vs veh, FAM179B / RFU, BCL10 / Fold change vs veh, BCL10 / RFU, UHRF1BP1L / Fold change vs veh, UHRF1BP1L / RFU, BET1 / Fold change vs veh, BET1 / RFU, CNOT2 / Fold change vs veh, CNOT2 / RFU, ZNF268 / Fold change vs veh, ZNF268 / Fold change vs veh, ZNF507 / RFU, DGCR2 / Fold change vs veh, DGCR2 / RFU, WDSUB1 / Fold change vs veh, WDSUB1 / Fold change vs veh, HSP90B1 /// MIR3652 / RFU, ADSS / Fold change vs veh, ADSS / RFU, GK / Fold change vs veh, GK / RFU, ZNF148 / Fold change vs veh, ZNF148 / RFU, TAF9 / Fold change vs veh, TAF9 / RFU, SLC1A5 / Fold change vs veh, SLC1A5 / RFU, SLMO2 / Fold change vs veh, SLMO2 / RFU, ABCC4 / Fold change vs veh, ABCC4 / RFU, LOC101060439 /// RAP1B / Fold change vs veh, LOC101060439 /// RAP1B / RFU, RFX7 / Fold change vs veh, RFX7 / RFU, GTPBP10 / Fold change vs veh, GTPBP10 / RFU, CNEP1R1 / Fold change vs veh, CNEP1R1 / RFU, BIVM-ERCC5 /// ERCC5 / Fold change vs veh, BIVM-ERCC5 /// ERCC5 / RFU, ILF3 / Fold change vs veh, ILF3 / RFU 11762660_at / Fold change /veh 11762660_at / RFU VCAN (11757783_s_at) / Fold change /veh VCAN (11757783_s_at) / RFU DDX43 (11728927_at) / Fold change /veh DDX43 (11728927_at) / RFU KRT8 (11758188_x_at) / Fold change /veh KRT8 (11758188_x_at) / RFU NKD1 (11759106_at) / Fold change /veh NKD1 (11759106_at) / RFU SRD5A1 (11742802_a_at) / Fold change /veh SRD5A1 (11742802_a_at) / RFU TPSAB1 /// TPSB2 (11721975_s_at) / Fold change /veh TPSAB1 /// TPSB2 (11721975_s_at) / RFU GSTM3 (11746129_a_at) / Fold change /veh GSTM3 (11746129_a_at) / RFU IL23R (11737362_x_at) / Fold change /veh IL23R (11737362_x_at) / RFU TMEM51 (11727254_a_at) / Fold change /veh TMEM51 (11727254_a_at) / RFU PIWIL2 (11732686_x_at) / Fold change /veh PIWIL2 (11732686_x_at) / RFU ORM1 (11744905_x_at) / Fold change /veh ORM1 (11744905_x_at) / RFU CCDC152 (11743942_at) / Fold change /veh CCDC152 (11743942_at) / RFU ECM1 (11717891_a_at) / Fold change /veh ECM1 (11717891_a_at) / RFU IL23R (11748794_a_at) / Fold change /veh IL23R (11748794_a_at) / RFU TNFAIP8L3 (11732012_x_at) / Fold change /veh TNFAIP8L3 (11732012_x_at) / RFU MBOAT4 (11741988_at) / Fold change /veh MBOAT4 (11741988_at) / RFU 11764193_at / Fold change /veh 11764193_at / RFU TMEM53 (11763286_at) / Fold change /veh TMEM53 (11763286_at) / RFU MAGEB2 (11727129_at) / Fold change /veh MAGEB2 (11727129_at) / RFU TMEM200A (11744735_a_at) / Fold change /veh TMEM200A (11744735_a_at) / RFU CCDC152 (11751479_a_at) / Fold change /veh CCDC152 (11751479_a_at) / RFU FAM211A (11726209_a_at) / Fold change /veh FAM211A (11726209_a_at) / RFU RGS16 (11746705_a_at) / Fold change /veh RGS16 (11746705_a_at) / RFU VCAN (11755009_s_at) / Fold change /veh VCAN (11755009_s_at) / RFU RHOB (11743442_s_at) / Fold change /veh RHOB (11743442_s_at) / RFU RGS16 (11720943_a_at) / Fold change /veh RGS16 (11720943_a_at) / RFU RGS16 (11720944_at) / Fold change /veh RGS16 (11720944_at) / RFU, VPS4B / Fold change vs veh, VPS4B / RFU, CREB1 / Fold change vs veh, CREB1 / RFU, DNAJC13 / Fold change vs veh, DNAJC13 / RFU, GNAQ / Fold change vs veh, GNAQ / RFU, CDK5R1 / Fold change vs veh, CDK5R1 / RFU, ZRANB3 / Fold change vs veh, ZRANB3 / RFU, CUL4A / Fold change vs veh, CUL4A / RFU, CCNY / Fold change vs veh, CCNY / RFU, UFL1 / Fold change vs veh, UFL1 / RFU, COG3 / Fold change vs veh, COG3 / RFU, DIAPH2 / Fold change vs veh, DIAPH2 / RFU, SKA2 / Fold change vs veh, SKA2 / RFU, AFF3 / Fold change vs veh, AFF3 / RFU, LMF1 / Fold change vs veh, LMF1 / RFU, IPO11 / Fold change vs veh, IPO11 / RFU, DFFB / Fold change vs veh, DFFB / RFU, FOXP1 / Fold change vs veh, FOXP1 / RFU, CARD8 / Fold change vs veh, CARD8 / RFU, STRN3 / Fold change vs veh, STRN3 / RFU, ADK / Fold change vs veh, ADK / RFU, RASSF2 / Fold change vs veh, RASSF2 / RFU, WIPF1 / Fold change vs veh, WIPF1 / RFU, LARP1B / Fold change vs veh, LARP1B / RFU, RASA1 / Fold change vs veh, RASA1 / RFU, RB1 / Fold change vs veh, RB1 / RFU, PPFIA1 / Fold change vs veh, PPFIA1 / RFU, MAT2A / Fold change vs veh, MAT2A / RFU, CCT5 / Fold change vs veh, CCT5 / RFU, WDR92 / Fold change vs veh, WDR92 / RFU, CUX1 / Fold change vs veh, CUX1 / RFU, TTC7A / Fold change vs veh, TTC7A / RFU, TMEM135 / Fold change vs veh, TMEM135 / RFU, DEPTOR / Fold change vs veh, DEPTOR / RFU, CPM / Fold change vs veh, CPM / RFU, DNAJB6 / Fold change vs veh, DNAJB6 / RFU, CACNA2D3 / Fold change vs veh, CACNA2D3 / RFU, DTX4 / Fold change vs veh, DTX4 / RFU, TFCP2 / Fold change vs veh, TFCP2 / RFU, GMCL1 /// GMCL1P1 / Fold change vs veh, GMCL1 /// GMCL1P1 / RFU, AEBP2 / Fold change vs veh, AEBP2 / RFU, SNHG1 /// SNORD22 /// SNORD25 /// SNORD26 /// SNORD27 /// SNORD28 /// SNORD29 /// SNORD31 / Fold change vs veh, SNHG1 /// SNORD22 /// SNORD25 /// SNORD26 /// SNORD27 /// SNORD28 /// SNORD29 /// SNORD31 / Fold change (Aza/veh), C12orf56 (ProbeSet 11735607_a_at) / Fold change (ACY-1035/veh), C12orf56 (ProbeSet 11735607_a_at) / Fold change (Aza/veh), FGFR1OP (ProbeSet 11751329_s_at) / Fold change (ACY-1035/veh), FGFR1OP (ProbeSet 11751329_s_at) / Fold change (Aza/veh), VPS36 (ProbeSet 11739960_a_at) / Fold change (ACY-1035/veh), VPS36 (ProbeSet 11739960_a_at) / RFU SYPL1 (11715823_x_at) / Fold change /veh SYPL1 (11715823_x_at) / RFU IGFBP7 (11715501_s_at) / Fold change /veh IGFBP7 (11715501_s_at) / RFU REEP3 (11722064_at) / Fold change /veh REEP3 (11722064_at) / RFU IGLL1 (11728026_x_at) / Fold change /veh IGLL1 (11728026_x_at): dose or concentration left out as unconfirmed
Settings: ProbeSet 11727958_a_at; LIST B

## Nc1ncn([C@@H]2O[C@H](CO)[C@@H](O)[C@H]2O)c(=O)n1 [azacitidine]
  RFU, ING1: 72.09 RFU

Reference: paper PMC5218480 (PLoS ONE, 2017)
